Tests used:
Leishmania mexicana [1] = test: Inhibition of Leishmania mexicana GAPDH(glyceraldehyde-3-phosphate dehydrogenase); set-up: concentration or dose not given beside the values; conditions: concentration not given here
[2] = system: CC(C)=CCNc1ncnc2c1nc(-c1cccs1)n2C1O[C@H](CO)[C@@H](O)[C@H]1O
Description: Inhibition of human erythrocyte GAPDH(glyceraldehyde-3-phosphate dehydrogenase) expressed as KM value

Leishmania mexicana [3] = system: Leishmania mexicana
Description: Inhibition of Leishmania mexicana GAPDH(glyceraldehyde-3-phosphate dehydrogenase) expressed as KM value

Glyceraldehyde-3-phosphate dehydrogenase (Homo sapiens), P04406, sequence (P04406 whole entry): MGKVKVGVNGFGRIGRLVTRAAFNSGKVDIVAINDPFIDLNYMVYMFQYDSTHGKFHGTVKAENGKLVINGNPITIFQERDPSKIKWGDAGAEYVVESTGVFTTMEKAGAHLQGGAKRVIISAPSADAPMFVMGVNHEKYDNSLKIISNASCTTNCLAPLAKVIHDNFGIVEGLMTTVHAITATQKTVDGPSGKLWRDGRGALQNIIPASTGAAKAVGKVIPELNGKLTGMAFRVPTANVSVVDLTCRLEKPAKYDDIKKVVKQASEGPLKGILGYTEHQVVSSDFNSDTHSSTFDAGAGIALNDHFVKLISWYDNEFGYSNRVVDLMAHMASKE

Row | inhibition (Leishmania mexicana [1]) [%] | Molecule | further results
1 | 100 | Nc1ncnc2c1nc(N1CCCC1)n2C1O[C@H](CO)[C@@H](O)[C@H]1O (some centres undefined) | –
2 | 100 | OC[C@H]1OC(n2c(-c3cccs3)nc3c(NCc4ccccc4)ncnc32)[C@H](O)[C@@H]1O (some centres undefined) | –
3 | 80 | Nc1ncnc2c1nc(NCCO)n2C1O[C@H](CO)[C@@H](O)[C@H]1O (some centres undefined) | –
4 | 77 | O=C(Cc1ccccc1)NC[C@H]1OC(n2cnc3c(NCc4ccccc4)ncnc32)[C@H](O)[C@@H]1O (some centres undefined) | –
5 | 74 | NC(=O)CCC(=O)NC[C@H]1OC(n2cnc3c(NCc4ccccc4)ncnc32)[C@H](O)[C@@H]1O (some centres undefined) | –
6 | 100 | COc1cccc(C(=O)N[C@@H]2[C@H](O)[C@@H](COC(=O)c3ccccc3C(=O)O)O[C@H]2n2cnc3c(NCc4ccccc4)ncnc32)c1 | –
7 | 100 | Cc1ccccc1CNc1ncnc2c1nc(-c1cccs1)n2C1O[C@H](CO)[C@@H](O)[C@H]1O (some centres undefined) | –
8 | 100 | Nc1ncnc2c1ncn2C1O[C@H](COC(=O)CCC(=O)O)[C@@H](O)[C@H]1O (some centres undefined) | –
9 | 75 | CN(C)c1nc2c(N)ncnc2n1C1O[C@H](CO)[C@@H](O)[C@H]1O (some centres undefined) | –
10 | 77 | O=C(CC1CCCCC1)NC[C@H]1OC(n2cnc3c(NCc4ccccc4)ncnc32)[C@H](O)[C@@H]1O (some centres undefined) | –
11 | 100 | Nc1ncnc2c1nc(N1CCCCC1)n2[C@@H]1O[C@H](CO)[C@@H](O)[C@H]1O | –
12 | 67 | Nc1ncnc2c1ncn2[C@@H]1O[C@H](COC(=O)c2ccccc2)[C@@H](O)[C@H]1O | –
13 | 79 | O=C(O)CCCC(=O)NC[C@H]1OC(n2cnc3c(NCc4ccccc4)ncnc32)[C@H](O)[C@@H]1O (some centres undefined) | –
14 | – | Glyceraldehyde-3-phosphate dehydrogenase (Homo sapiens), P04406 | Km [2]: 40 µM
15 | 100 | O=C(NC[C@H]1OC(n2cnc3c(NCc4ccccc4)ncnc32)[C@H](O)[C@@H]1O)c1cc(O)cc(O)c1 (some centres undefined) | –
16 | – | CC(C)=CCNc1ncnc2c1nc(-c1cccs1)n2C1O[C@H](CO)[C@@H](O)[C@H]1O (some centres undefined) | Km (Leishmania mexicana [3]): 400 µM
17 | 100 | Nc1ncnc2c1nc(NCc1ccccc1)n2[C@@H]1O[C@H](CO)[C@@H](O)[C@H]1O | –
18 | 84 | CC(C)=CCNc1ncnc2c1ncn2[C@@H]1O[C@H](CO)[C@@H](O)[C@H]1O | –
19 | 100 | Nc1ncnc2c1ncn2C1O[C@H](COC(=O)c2ccc3ccccc3c2)[C@@H](O)[C@H]1O (some centres undefined) | –
